Experimental data published in patent US7371741B2, “Estradiol derivatives and pharmaceutical compositions using same” (EntreMed, Inc., priority 2003, dated 2008).

Assays:
[1] = tested on: HUVEC: non-transformed early passage human umbilical vein endothelial cells; assay: In vitro anti-proliferative activity, BrdU incorporation, HUVEC; format: cell-based; conditions: 50% inhibition of proliferation, BrdU incorporation into DNA
Description: (§1) Determination of in vitro anti-proliferative activity of substituted estradiol analogs: In vitro anti-proliferative or anti-mitogenic activity was determined using a commercially available cell-based assay in 96-well tissue culture plates with assessment of proliferation by evaluating DNA synthesis through incorporation into DNA of immuno-reactive (BrdU) nucleotides. The cell types used are commercially available (MDA-MB-231: breast cancer; U87-MG: glioblastoma; PC3: prostate cancer; HUVEC: non-transformed early passage human umbilical vein endothelial cells). These assays, and the many assay variations possible to determine in vitro anti-proliferative or anti-mitogenic activity, are well known to those skilled in the art. The concentration which causes 50% inhibition of proliferation (IC50) was estimated from a dose-response curve generally carried out with a range of concentrations from ≧100 microg/mL to ≦0.01 microg/mL.

PC3: prostate cancer = assay: In vitro anti-proliferative activity, BrdU incorporation, PC3; format: cell-based; conditions: PC3 cells, 50% inhibition of proliferation, BrdU incorporation into DNA
Description: as §1

[2] = tested on: chick embryo chorioallantoic membrane; assay: Chick embryo chorioallantoic membrane (CAM) assay; format: in vivo; conditions: 100 μg methylcellulose disk, after 48 hours
Excerpt: Anti-proliferative activity can be evaluated in situ by testing the ability of an improved estradiol derivative to inhibit the proliferation of new blood vessel cells (angiogenesis). A suitable assay is the chick embryo chorioallantoic membrane (CAM) assay described by Crum et al. Science 230:1375 (1985). See also, U.S. Pat. No. 5,001,116, hereby incorporated by reference, which describes the CAM assay. Briefly, fertilized chick embryos are removed from their shell on day 3 or 4, and a methylcellulose disc containing the drug is implanted on the chorioallantoic membrane. The embryos are examined 48 hours later and, if a clear avascular zone appears around the methylcellulose disc, the diameter of that zone is measured.

[3] = tested on: MDA-MB-231: breast cancer; assay: In vitro anti-proliferative activity, BrdU incorporation, MDA-MB-231; format: cell-based; conditions: MDA-MB-231 cells, 50% inhibition of proliferation, BrdU incorporation into DNA
Description: as §1

U87-MG: glioblastoma = assay: In vitro anti-proliferative activity, BrdU incorporation, U87-MG; format: cell-based; conditions: U87-MG cells, 50% inhibition of proliferation, BrdU incorporation into DNA
Description: as §1

SMILES | IC50 ([1]; Homo sapiens) | IC50 (PC3: prostate cancer; Homo sapiens, PC-3) | inhibition of cell mitosis and growth of new blood vessels (CAM) [2] | IC50 ([3]; Homo sapiens) | IC50 [1] | IC50 (U87-MG: glioblastoma) | IC50 (PC3: prostate cancer) | IC50 [3] | IC50 (U87-MG: glioblastoma; Homo sapiens, U-87 MG)
COc1cc2c(cc1O)CC[C@@H]1[C@@H]2CC[C@]2(C)[C@@H](O)CC[C@@H]12 [Compound 1, 2-methoxyestradiol, reference compound] | 680 ± 150 nM | 1080 ± 500 nM | inhibit cell mitosis and the growth of new blood vessels | 690 ± 140 nM | – | – | – | – | –
CC=C1CC[C@H]2[C@@H]3CCc4cc(NC=O)c(OC)cc4[C@H]3CC[C@]12C [Compound 112, 3-formamide-17-ethylene-2-methoxyestra-1,3,5(10)-triene] | – | – | – | – | 580 nM | 770 ± 60 nM | 740 ± 10 nM | 560 ± 20 nM | –
COc1cc2c(cc1OS(N)(=O)=O)CC[C@@H]1[C@@H]2CC[C@]2(C)C(C)CC[C@@H]12 (stereo partly drawn) [Compound 118, 3-sulfamate-17-methyl-2-methoxyestra-1,3,5(10)-triene] | – | – | – | – | 590 ± 100 nM | 640 ± 10 nM | 820 ± 60 nM | 660 ± 100 nM | –
CCOc1cc2c(cc1OS(N)(=O)=O)CC[C@@H]1[C@@H]2CC[C@]2(C)C(C)CC[C@@H]12 (stereo partly drawn) [Compound 119, 3-sulfamate-17-methyl-2-ethoxyestra-1,3,5(10)-triene] | – | – | – | – | 910 ± 90 nM | 6410 nM | 830 nM | 1550 ± 390 nM | –
COc1cc2c(cc1N)CC[C@@H]1[C@@H]2CC[C@]2(C)C(C)CC[C@@H]12 (stereo partly drawn) [Compound 133, 3-amino-17-methyl-2-methoxyestra-1,3,5(10)-triene] | 2650 ± 770 nM | 7160 ± 1420 nM | – | 7310 ± 580 nM | – | – | – | – | 14870 ± 10 nM
COc1cc2c(cc1NC=O)CC[C@@H]1[C@@H]2CC[C@]2(C)C(C)CC[C@@H]12 (stereo partly drawn) [Compound 136, 3-formamide-17-methyl-2-methoxyestra-1,3,5(10)-triene] | – | – | – | – | 590 nM | 640 ± 10 nM | 700 ± 100 nM | 610 nM | –
